Data reported in PubChem BioAssay (NCI).
Values joined by “and” are separate entries in the source; they are usually repeats but may differ in a detail not shown here. Identical values can stand only once.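 Tested at 5 concentrations; 48 h exposure; 96-well plates; endpoints linearly interpolated, else capped at highest concentration. Abbreviation: GI50, concentration required for 50% inhibition of growth. TGI is the concentration that stops growth completely.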

How the values were obtained:
Assay in all cases: DTP human tumour cell line panel, 48 h
[1] = tested on: SK-MEL-28 melanoma
[2] = tested on: NCI-H460 lung
[3] = tested on: MCF7 breast
[4] = tested on: NCI/ADR-RES ovarian
[5] = tested on: A498 renal
[6] = tested on: 786-0 renal
[7] = tested on: SK-MEL-2 melanoma
[8] = tested on: MDA-MB-435
[9] = tested on: HL-60(TB) leukemia
[10] = tested on: HOP-62 NSCLC

Compound | GI50 [1] | TGI [1] | GI50 [2] | TGI [2] | GI50 [3] | TGI [3] | GI50 [4] | TGI [4] | GI50 [5] | TGI [5] | GI50 [6] | TGI [6] | GI50 [7] | TGI [7] | GI50 [8] | TGI [8] | GI50 [9] | TGI [9] | TGI [10] | GI50 [10]
COc1cc(N=Nc2cc(Cc3ccc(N(C)C)cc3)c(N)cc2N(C)C)c2ncccc2c1 | 0.745 µM | 2.2 µM | 0.519 µM | 1.91 µM | 0.21 µM | 0.855 µM | 0.338 µM | 1.57 µM | 0.809 µM | 3.07 µM | 1.01 µM | 2.25 µM | 0.562 µM | 4.17 µM | 0.515 µM | 2.07 µM | 0.267 µM | 1.36 µM |  | 
CC(=O)CCC1(c2ccccc2)OC(=O)C(C#N)=C1c1ccccc1 (configuration not stated) |  | > 100 µM |  | > 100 µM |  |  |  |  |  | > 100 µM |  | > 100 µM |  | > 100 µM |  |  |  |  | > 100 µM | 
CC(=O)c1cc2c(N)c(C(=O)Nc3cccc4ccccc34)sc2nc1C | 4.07 µM | > 50 µM | 1.61 µM | > 50 µM | 1.42 µM | > 50 µM |  |  | 0.34 µM | > 50 µM | 1.87 µM | > 50 µM | 4.22 µM | > 50 µM | 0.178 µM | 1.08 µM | 1.36 µM | 4.35 µM | 27.4 µM | 1.67 µM
N=C(N)c1ccc2oc3ccc(C(=N)N)cc3c(=O)c2c1 |  | > 100 µM |  | > 100 µM |  | > 100 µM |  | > 100 µM |  | > 100 µM |  | > 100 µM |  | > 100 µM |  | > 100 µM |  | > 100 µM |  | 
COC(=O)CC1(O)C(=O)OCc2c1cc1n(c2=O)Cc2c-1nc1ccccc1c2OC (configuration not stated) |  | > 100 µM |  |  |  |  |  |  |  | 11.5 µM |  | 0.813 µM |  | 74.6 µM |  |  |  | 0.778 µM | 0.358 µM | 
CN(C)CCCN1c2ccccc2Sc2ccc(C(F)(F)F)cc21 | 1.68 µM |  | 1.6 µM |  | 1.6 µM |  | 1.66 µM | 3.42 µM and 31.1 µM | 1.05 µM |  | 1.63 µM | 3.09 µM and 27.1 µM and 27.9 µM | 1.79 µM | 3.69 µM and 30.5 µM | 1.6 µM |  | 1.82 µM |  |  | 
CC1NOC(=O)C1N=Nc1cccc(Cl)c1 (configuration not stated) |  | > 100 µM |  | > 100 µM |  |  |  |  |  | 52.5 µM |  | > 100 µM |  | 47.4 µM |  |  |  | 56.8 µM | > 100 µM | 
Nc1nc(Cl)c2ncn(CCCC(c3ccccc3)P(=O)(O)O)c2n1 (configuration not stated) |  | > 100 µM |  | > 100 µM |  |  |  |  |  | > 100 µM |  | > 100 µM |  | > 100 µM |  |  |  | > 100 µM | > 100 µM | 
O=P(CN1CCOCC1)(c1ccccc1)c1ccccc1 |  | > 100 µM |  | > 100 µM |  |  |  |  |  | > 100 µM |  | > 100 µM |  | > 100 µM |  |  |  | > 100 µM | > 100 µM | 
Cc1c(Cl)ccc2c1NC(=O)C2(O)CC(=O)c1ccc(Cl)cc1 (configuration not stated) |  | > 100 µM |  | > 63.3 µM |  |  |  |  |  | > 64.1 µM |  | > 100 µM |  | > 64.2 µM |  |  |  | > 80.6 µM | > 100 µM | 
